Laboratory results from patent US12215101B2, “Pro drugs of PDE10 compounds” (Merck Sharp & Dohme LLC, priority 2021, dated 2025).
≈ marks a conversion by molar mass, not a printed value.

Assays:
[1] = Plasma stability in frozen human plasma; format: in vitro ADME; conditions: 37° C., 10% CO2, read-out: T1/2 Human Plasma (converted)
Description: (§1) Plasma stability of the compounds 1-19 (1 μM) was evaluated in frozen monkey and human plasma at 37° C. in a 10% CO2 environment. The stability of the analyte was assessed by determining the percentage of drug loss over the course of 0, 0.25, 0.5, 1, and 3 hr. In addition, the appearance of Compound A was determined for the same time course. Percent of drug loss as based on ratio with internal standard. Analyte concentrations were measured by LC/MS/MS. Linear regression was performed with log transformed percent of average TO values and linear time values. The elimination rate constant (ke) was calculated from the slope of this regression line and the half-life (T1/2) calculated based on the elimination rate constant.

[2] = Plasma stability in frozen monkey plasma; format: in vitro ADME; conditions: 37° C., 10% CO2, read-out: T1/2 Monkey Plasma (converted)
Description: as §1

[3] = Aqueous solubility (slurry in pH 7 buffer, UPLC); format: physicochemical; conditions: pH 7.0 phosphate buffer, amorphous material; for solubility: aqueous buffer, thermodynamic from solid, read-out: Aqu. Solubility
Description: Aqueous solubility of the compounds was measured by suspending, sonicating (30 minutes), and slurrying (2 hours, 1000 rpm) excess solid (typically 5-10 mg) in phosphate buffered saline at pH 7, or equivalent pH 7 buffer. The suspension was then sonicated again for 30 minutes and stirred again at 1000 rpm for at least 6-24 hours. Approximately 400 μL of sample was removed and placed into spin filters. Each sample was spun at 14K rpm for 10 minutes using a 0.45 μm PVDF spin filter. A portion of the filtrate was removed and diluted with 1:1 ACN:H2O. The resultant samples were analyzed using UPLC analysis. Retains of the solids were checked by XRPD to determine if the material was crystalline or amorphous. Solubility of Compound A was measured at 140 μg/mL at pH 7.4 in PBS buffer solution.

SMILES	half-life at 1 μM [1] [min]	half-life at 1 μM [2] [min]	solubility [3] [µg/mL]	Aqu. Solubility [3]
Cc1ccc([C@H]2C[C@@H]2COc2cc(N(Cc3nnc(C)s3)C(=O)OCOC(=O)c3ccccc3)nc(C)n2)nc1 [Compound 5, ((((5-Methyl-1,3,4-thiadiazol-2-yl)methyl)(2-methyl-6-(((1S,2S)-2-(5-methylpyridin-2-yl)cyclopropyl)methoxy)pyrimidin-4-yl)carbamoyl)oxy)methyl benzoate]	104	78.6	0.02 (≈ 0.0357 µM)	–
Cc1ccc([C@H]2C[C@@H]2COc2cc(N(Cc3nnc(C)s3)C(=O)c3ccccc3)nc(C)n2)nc1 [Compound 3, N-((5-Methyl-1,3,4-thiadiazol-2-yl)methyl)-N-(2-methyl-6-(((1S,2S)-2-(5-methylpyridin-2-yl)cyclopropyl)methoxy)pyrimidin-4-yl)benzamide]	182	69	19 (≈ 39 µM)	–
Cc1ccc([C@H]2C[C@@H]2COc2cc(N(Cc3nnc(C)s3)C(=O)OCOC(=O)c3ccccn3)nc(C)n2)nc1 [Compound 9, ({(2-Methyl-6-{[(1S,2S)-2-(5-methylpyridin-2-yl)cyclopropyl]methoxy}pyrimidin-4-yl)[(5-methyl-1,3.4-thiadiazol-2-yl)methyl]carbamoyl}oxy)methyl pyridine-2-carboxylate]	7.2	6	0.058 (≈ 0.103 µM)	–
Cc1ccc([C@H]2C[C@@H]2COc2cc(N(Cc3nnc(C)s3)C(=O)OCOC(=O)c3ccncc3)nc(C)n2)nc1 [Compound 8, ({(2-Methyl-6-{[(1S,2S)-2-(5-methylpyridin-2-yl)cyclopropyl]methoxy}pyrimidin-4-yl)[(5-methyl-1,3,4-thiadiazol-2-yl)methyl]carbamoyl}oxy)methyl pyridine-4-carboxylate]	11.4	9.6	0.139 (≈ 0.247 µM)	–
CCC(=O)OCOC(=O)N(Cc1nnc(C)s1)c1cc(OC[C@H]2C[C@@H]2c2ccc(C)cn2)nc(C)n1 [Compound 7, ({(2-Methvl-6-{[(1S,2S)-2-(5-methylpyridin-2-yl)cyclopropyl]methoxy}pyrimidin-4-yl)[(5-methyl-1,3,4-thiadiazol-2-yl)methyl|carbamoyl}oxy)methyl propanoate]	4.8	5.4	15 (≈ 29.3 µM)	–
Cc1ccc([C@H]2C[C@@H]2COc2cc(N(Cc3nnc(C)s3)Sc3ccccc3)nc(C)n2)nc1 [Compound 2, N-((5-Methyl-1,3,4-thiadiazol-2-yl)methyl)-N-(2-methyl-6-(((1S,2S)-2-(5-methylpyridin-2-yl)cyclopropyl)methoxy)pyrimidin-4-yl)-S-phenylthiohydroxylamine]	17.4	4.8	–	BLQ
CCCCCOC(=O)N(Cc1nnc(C)s1)c1cc(OC[C@H]2C[C@@H]2c2ccc(C)cn2)nc(C)n1 [Compound 4, Pentyl ((5-methyl-1,3,4-thiadiazol-2-yl)methyl)(2-methyl-6-(((1S,2S)-2-(5-methylpyridin-2-yl)cyclopropyl)methoxy)pyrimidin-4-yl)carbamate]	412	104	0.008 (≈ 0.0161 µM)	–
CCCCCC(=O)OCOC(=O)N(Cc1nnc(C)s1)c1cc(OC[C@H]2C[C@@H]2c2ccc(C)cn2)nc(C)n1 [Compound 6, ({(2-Methyl-6-{[(1S,2S)-2-(5-methylpyridin-2-yl)cyclopropyl]methoxylpyrimidin-4-yl)[(5-methyl-1,3,4-thiadiazol-2-yl)methyl]carbamoyl}oxy)methyl hexanoate]	21	14.4	0.02 (≈ 0.0361 µM)	–
Cc1ccc([C@H]2C[C@@H]2COc2cc(N(Cc3nnc(C)s3)C(=O)OCc3oc(=O)oc3C)nc(C)n2)nc1 [Compound 1, (5-Methyl-2-oxo-1,3-dioxol-4-yl)methyl ((5-methyl-1,3,4-thiadiazol-2-yl)methyl)(2-methyl-6-(((1S,2S)-2-(5-methylpyridin-2-yl)cyclopropyl)methoxy)pyrimidin-4-yl)carbamate]	3.6	6.6	2.3 (≈ 4.27 µM)	–
Cc1ccc([C@H]2C[C@@H]2COc2cc(N(Cc3nnc(C)s3)C(=O)OCOC(=O)c3cccnc3)nc(C)n2)nc1 [Compound 10, ({(2-Methyl-6-{[(1S,2S)-2-(5-methylpyridin-2-ylcyclopropyl]methoxy}pyrimidin-4-yl)|(5-methyl-1,3,4-thiadiadol-2-yl)methyl]carbamoyl}oxy)methyl pyridine-3-carboxylate]	55.8	30.6	0.05 (≈ 0.089 µM)	–

Results, then the compound that gave them:

half-life at 1 μM [1] [min]	half-life at 1 μM [2] [min]	solubility [3] [µg/mL]	Aqu. Solubility [3]	SMILES
148	35.4	0.03 (≈ 0.0541 µM)	–	CCC(CC)C(=O)OCOC(=O)N(Cc1nnc(C)s1)c1cc(OC[C@H]2C[C@@H]2c2ccc(C)cn2)nc(C)n1 [Compound 19, ({(2-Methyl-6-{[(1S,2S)-2-(5-methylpyridin-2-yl)cyclopropyl]methoxy}pyrimidin-4-yl)[(5-methyl-1,3,4-thiadiazol-2-yl)methyl]carbamoyl}oxy)methyl 2-ethylbutanoate]
126	54	0.02 (≈ 0.0339 µM)	–	COc1ccccc1C(=O)OCOC(=O)N(Cc1nnc(C)s1)c1cc(OC[C@H]2C[C@@H]2c2ccc(C)cn2)nc(C)n1 [Compound 14, ({(2-Methyl-6-{[(1S,2S)-2-(5-methylpyridin-2-yl)cyclopropyl]methoxy}pyrimidin-4-yl)[(5-methyl-1,3,4-thiadiazol-2-yl)methyl]carbamoyl}oxy)methyl 2-methoxybenzoate]
227	100	0.16 (≈ 0.271 µM)	–	COc1ccc(C(=O)OCOC(=O)N(Cc2nnc(C)s2)c2cc(OC[C@H]3C[C@@H]3c3ccc(C)cn3)nc(C)n2)cc1 [Compound 16, ({(2-Methyl-6-{[(1S,2S)-2-(5-methylpyridin-2-yl)cyclopropyl]methoxy}pyrimidin-4-yl)[(5-methyl-1,3,4-thiadiazol-2-yl)methyl]carbamoyl}oxy)methyl 4-methoxybenzoate]
198	67.2	0.12 (≈ 0.203 µM)	–	COc1cccc(C(=O)OCOC(=O)N(Cc2nnc(C)s2)c2cc(OC[C@H]3C[C@@H]3c3ccc(C)cn3)nc(C)n2)c1 [Compound 15, ({(2-Methyl-6-{[(1S,2S)-2-(5-methylpyridin-2-yl)cyclopropyl]methoxy}pyrimidin-4-yl)[(5-methyl-1,3,4-thiadiazol-2-yl)methyl]carbamoyl}oxy)methyl 3-methoxybenzoate]
7.8	7.2	0.16 (≈ 0.304 µM)	–	Cc1ccc([C@H]2C[C@@H]2COc2cc(N(Cc3nnc(C)s3)C(=O)OCOC(=O)C(C)C)nc(C)n2)nc1 [Compound 17]
64.8	43.2	0.07 (≈ 0.121 µM)	–	Cc1ccc([C@H]2C[C@@H]2COc2cc(N(Cc3nnc(C)s3)C(=O)OCOC(=O)c3ccc(F)cc3)nc(C)n2)nc1 [Compound 11, ({(2-Methyl-6-{[(1S,2S)-2-(5-methylpyridin-2-yl)cyclopropyl]methoxy}pyrimidin-4-yl)[(5-methyl-1,3,4-thiadiazol-2-yl)methyl]carbamoyl}oxy)methyl 4-fluorobenzoate]
27	16.8	0.08 (≈ 0.138 µM)	–	Cc1ccc([C@H]2C[C@@H]2COc2cc(N(Cc3nnc(C)s3)C(=O)OCOC(=O)c3ccccc3F)nc(C)n2)nc1 [Compound 13, ({(2-Methyl-6-{[(1S,2S)-2-(5-methylpyridin-2-yl)cyclopropyl]methoxy}pyrimidin-4-yl)[(5-methyl-1,3,4-thiadiazol-2-yl)methyl]carbamoyl}oxy)methyl 2-fluorobenzoate]
21	16.8	0.07 (≈ 0.124 µM)	–	Cc1ccc([C@H]2C[C@@H]2COc2cc(N(Cc3nnc(C)s3)C(=O)OCOC(=O)C3CCCCC3)nc(C)n2)nc1 [Compound 18, ({(2-Methyl-6-{[(1S,2S)-2-(5-methylpyridin-2-yl)cyclopropyl]methoxy}pyrimidin-4-yl)[(5-methyl-1,3,4-thiadiazol-2-yl)methyl]carbamoyl}oxy)methyl cyclohexanecarboxylate]
